In PubChem BioAssay AID1963837 (Molecular Pharmacology Branch, DTP, NCI, 2024):

Tested on: 843126-344-R-J1-PDC complex spheroid viability
Assay: Anticancer human tumor 843126-344-R-J1-PDC patient-derived melanoma cell line growth inhibition [POLQ]
Settings: for IC50: curve of first compound; for viability, T/C: stronger effect = lower value
How it was run: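 Growth inhibition in 3D: complex spheroids (tumor PDC, HUVEC, MSC) treated with POLQ inhibitor combinations; where Cmax unknown, highest tested concentration 10 microM, except SN-38 at 1 microM.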
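Throughout, for viability, T/C: spheroids exposed to drugs for seven days before readout.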

Question: What does the source list for `CC(=O)O[C@H]1C(=O)[C@@]2(C)[C@H]([C@H](OC(=O)c3ccccc3)[C@]3(O)C[C@H](OC(=O)[C@H](O)[C@@H](NC(=O)c4ccccc4)c4ccccc4)C(C)=C1C3(C)C)[C@]1(OC(C)=O)CO[C@@H]1C[C@@H]2O` + Nc1ccc(C#CCN(C(=O)Cc2ncc(C(F)(F)F)cc2C(F)(F)F)c2ccc(F)cc2)nn1?
Answer: IC50 (second compound 0.0316 µM): > 3 µM; IC50 (second compound 0.1 µM): > 3 µM; IC50 (second compound 0.316 µM): > 3 µM; IC50 (second compound 1 µM): > 3 µM; IC50 (second compound 3.16 µM): > 3 µM; IC50 (second compound 10 µM): > 3 µM; viability, T/C (second compound 0.0316 µM, first compound 0.00949 µM): 65.6%; viability, T/C (second compound 0.0316 µM, first compound 0.03 µM): 58.7%; viability, T/C (second compound 0.0316 µM, first compound 0.0949 µM): 65%; viability, T/C (second compound 0.0316 µM, first compound 0.3 µM): 65.8%; viability, T/C (second compound 0.0316 µM, first compound 0.949 µM): 68.5%; viability, T/C (second compound 0.0316 µM, first compound 3 µM): 69.6%; viability, T/C (second compound 0.1 µM, first compound 0.00949 µM): 65.6%; viability, T/C (second compound 0.1 µM, first compound 0.03 µM): 53.5%; viability, T/C (second compound 0.1 µM, first compound 0.0949 µM): 56.7%; viability, T/C (second compound 0.1 µM, first compound 0.3 µM): 61.5%; viability, T/C (second compound 0.1 µM, first compound 0.949 µM): 78.6%; viability, T/C (second compound 0.1 µM, first compound 3 µM): 61.2%; viability, T/C (second compound 0.316 µM, first compound 0.00949 µM): 68.1%; viability, T/C (second compound 0.316 µM, first compound 0.03 µM): 53.4%; viability, T/C (second compound 0.316 µM, first compound 0.0949 µM): 70.7%; viability, T/C (second compound 0.316 µM, first compound 0.3 µM): 61.6%; viability, T/C (second compound 0.316 µM, first compound 0.949 µM): 64.8%; viability, T/C (second compound 0.316 µM, first compound 3 µM): 73.5%; viability, T/C (second compound 1 µM, first compound 0.00949 µM): 67.2%; viability, T/C (second compound 1 µM, first compound 0.03 µM): 57.1%; viability, T/C (second compound 1 µM, first compound 0.0949 µM): 62.2%; viability, T/C (second compound 1 µM, first compound 0.3 µM): 55.6%; viability, T/C (second compound 1 µM, first compound 0.949 µM): 62.8%; viability, T/C (second compound 1 µM, first compound 3 µM): 62.7%; viability, T/C (second compound 3.16 µM, first compound 0.00949 µM): 69.3%; viability, T/C (second compound 3.16 µM, first compound 0.03 µM): 62.1%; viability, T/C (second compound 3.16 µM, first compound 0.0949 µM): 54.9%; viability, T/C (second compound 3.16 µM, first compound 0.3 µM): 59.8%; viability, T/C (second compound 3.16 µM, first compound 0.949 µM): 63.7%; viability, T/C (second compound 3.16 µM, first compound 3 µM): 61.5%; viability, T/C (second compound 10 µM, first compound 0.00949 µM): 65.5%; viability, T/C (second compound 10 µM, first compound 0.03 µM): 57.6%; viability, T/C (second compound 10 µM, first compound 0.0949 µM): 61.5%; viability, T/C (second compound 10 µM, first compound 0.3 µM): 61.3%; viability, T/C (second compound 10 µM, first compound 0.949 µM): 60.2%; viability, T/C (second compound 10 µM, first compound 3 µM): 61.8%

Question: `COc1cc(C2c3cc4c(cc3C(OC3OC5COC(C)OC5C(O)C3O)C3COC(=O)C23)OCO4)cc(OC)c1O` (centres undefined) + Nc1ccc(C#CCN(C(=O)Cc2ncc(C(F)(F)F)cc2C(F)(F)F)c2ccc(F)cc2)nn1 was tested. Which IC50 (second compound 0.0316 µM) did it give?
Answer: > 10 µM

Question: And the IC50 (second compound 0.1 µM)?
Answer: > 10 µM

Question: And the IC50 (second compound 0.316 µM)?
Answer: > 10 µM

Question: What about the IC50 (second compound 1 µM) of the same compound?
Answer: > 10 µM

Question: And the IC50 (second compound 3.16 µM)?
Answer: 7.6 µM

Question: What about the IC50 (second compound 10 µM) of the same compound?
Answer: 6.29 µM

Question: What about the viability, T/C (second compound 0.0316 µM, first compound 0.0316 µM) of the same compound?
Answer: 82.4%

Question: What about the viability, T/C (second compound 0.0316 µM, first compound 0.1 µM) of the same compound?
Answer: 78.3%

Question: What about the viability, T/C (second compound 0.0316 µM, first compound 0.316 µM) of the same compound?
Answer: 94%

Question: And the viability, T/C (second compound 0.0316 µM, first compound 1 µM)?
Answer: 89.7%

Question: And the viability, T/C (second compound 0.0316 µM, first compound 3.16 µM)?
Answer: 58.3%

Question: What about the viability, T/C (second compound 0.0316 µM, first compound 10 µM) of the same compound?
Answer: 49.5%

Question: What about the viability, T/C (second compound 0.1 µM, first compound 0.0316 µM) of the same compound?
Answer: 97.1%

Question: What about the viability, T/C (second compound 0.1 µM, first compound 0.1 µM) of the same compound?
Answer: 77.8%

Question: And the viability, T/C (second compound 0.1 µM, first compound 0.316 µM)?
Answer: 92%

Question: And the viability, T/C (second compound 0.1 µM, first compound 1 µM)?
Answer: 94.3%

Question: What about the viability, T/C (second compound 0.1 µM, first compound 3.16 µM) of the same compound?
Answer: 73.4%

Question: What about the viability, T/C (second compound 0.1 µM, first compound 10 µM) of the same compound?
Answer: 51.4%

Question: What about the viability, T/C (second compound 0.316 µM, first compound 0.0316 µM) of the same compound?
Answer: 91.8%

Question: And the viability, T/C (second compound 0.316 µM, first compound 0.1 µM)?
Answer: 104%

Question: And the viability, T/C (second compound 0.316 µM, first compound 0.316 µM)?
Answer: 99.1%

Question: What about the viability, T/C (second compound 0.316 µM, first compound 1 µM) of the same compound?
Answer: 78.9%

Question: And the viability, T/C (second compound 0.316 µM, first compound 3.16 µM)?
Answer: 70.1%

Question: And the viability, T/C (second compound 0.316 µM, first compound 10 µM)?
Answer: 49.5%

Question: What about the viability, T/C (second compound 1 µM, first compound 0.0316 µM) of the same compound?
Answer: 96.1%

Question: And the viability, T/C (second compound 1 µM, first compound 0.1 µM)?
Answer: 83.6%

Question: And the viability, T/C (second compound 1 µM, first compound 0.316 µM)?
Answer: 80.5%

Question: What about the viability, T/C (second compound 1 µM, first compound 1 µM) of the same compound?
Answer: 71.6%

Question: And the viability, T/C (second compound 1 µM, first compound 3.16 µM)?
Answer: 64.3%

Question: What about the viability, T/C (second compound 1 µM, first compound 10 µM) of the same compound?
Answer: 53.5%

Question: What about the viability, T/C (second compound 3.16 µM, first compound 0.0316 µM) of the same compound?
Answer: 88.3%

Question: What about the viability, T/C (second compound 3.16 µM, first compound 0.1 µM) of the same compound?
Answer: 77%

Question: And the viability, T/C (second compound 3.16 µM, first compound 0.316 µM)?
Answer: 89.9%

Question: What about the viability, T/C (second compound 3.16 µM, first compound 1 µM) of the same compound?
Answer: 75.2%

Question: What about the viability, T/C (second compound 3.16 µM, first compound 3.16 µM) of the same compound?
Answer: 68.6%

Question: What about the viability, T/C (second compound 3.16 µM, first compound 10 µM) of the same compound?
Answer: 44.3%

Question: And the viability, T/C (second compound 10 µM, first compound 0.0316 µM)?
Answer: 81.8%

Question: And the viability, T/C (second compound 10 µM, first compound 0.1 µM)?
Answer: 96.5%

Question: What about the viability, T/C (second compound 10 µM, first compound 0.316 µM) of the same compound?
Answer: 78.5%

Question: What about the viability, T/C (second compound 10 µM, first compound 1 µM) of the same compound?
Answer: 75.4%

Question: What about the viability, T/C (second compound 10 µM, first compound 3.16 µM) of the same compound?
Answer: 61.7%

Question: And the viability, T/C (second compound 10 µM, first compound 10 µM)?
Answer: 42.3%
